We go through 2 compounds from ChEMBL document CHEMBL6134780, “Halogenated retinoid derivatives as dual RARα and RXRα modulators for treating acute promyelocytic leukemia cells” (Eur J Med Chem, 2024).

The subject of test [1] is NB-4. Description: Cell cycle arrest in human NB4 cells assessed as accumulation of cells at G2/M phase at 2 uM incubated for 3 to 12 hrs by DAPI staining based flow cytometric analysis. Format: functional. Conditions: time 3-12 hrs. In general terms: A flow cytometer gives signals particle by particle.
Test [2] deals with ATRA-resistant NB4-LR2. Description: Cell cycle arrest in human ATRA-resistant NB4-LR2 cells assessed as accumulation of cells at G2/M phase at 2 uM incubated for 3 to 12 hrs by DAPI staining based flow cytometric analysis. The test is classed as functional. Conditions: time 3-12 hrs.
The test system of test [3] is NB-4. Description: Cell cycle arrest in human NB4 cells assessed as accumulation of cells at G0/G1 phase at 0.5 uM incubated for 24 hrs by DAPI staining based flow cytometric analysis (reference value: 48 %). Format: functional.
The subject of test [4] is NB-4. Description: Cell cycle arrest in human NB4 cells assessed as accumulation of cells at S phase at 0.5 uM incubated for 24 hrs by DAPI staining based flow cytometric analysis (reference value: 26 %). The test is classed as functional.
The subject of test [5] is NB-4. Description: Cell cycle arrest in human NB4 cells assessed as accumulation of cells at G2/M phase at 2 uM incubated for 24 hrs by DAPI staining based flow cytometric analysis (reference value: 23 %). The test is classed as functional.
The test system of test [6] is NB-4. Description: Cell cycle arrest in human NB4 cells assessed as accumulation of cells at sub-G1 phase at 2 uM incubated for 24 hrs by DAPI staining based flow cytometric analysis (reference value: 3 %). Format: functional.
Test [7] can be described thus: Cell cycle arrest in human ATRA-resistant NB4-LR2 cells assessed as accumulation of cells at sub-G1 phase at 0.5 uM incubated for 24 hrs by DAPI staining based flow cytometric analysis (reference value: 12 %). Format: functional.
Test [8] is described as follows: Cell cycle arrest in human ATRA-resistant NB4-LR2 cells assessed as accumulation of cells at G2/M phase at 1 uM incubated for 24 hrs by DAPI staining based flow cytometric analysis (reference value: 25 %). The test is classed as functional.
Test [9] is described as follows: Cell cycle arrest in human ATRA-resistant NB4-LR2 cells assessed as accumulation of cells at sub-G1 phase at 1 uM incubated for 24 hrs by DAPI staining based flow cytometric analysis (reference value: 12 %). Format: functional.
Test [10] can be described thus: Cell cycle arrest in human ATRA-resistant NB4-LR2 cells assessed as accumulation of cells at G0/G1 phase at 2 uM incubated for 24 hrs by DAPI staining based flow cytometric analysis (reference value: 42 %). The test is classed as functional.
The nature of test [11]: Cell cycle arrest in human ATRA-resistant NB4-LR2 cells assessed as accumulation of cells at G2/M phase at 2 uM incubated for 24 hrs by DAPI staining based flow cytometric analysis (reference value: 25 %). Format: functional.
A short description of test [12]: Cell cycle arrest in human ATRA-resistant NB4-LR2 cells assessed as accumulation of cells at sub-G1 phase at 2 uM incubated for 24 hrs by DAPI staining based flow cytometric analysis (reference value: 12 %). The test is classed as functional.
Test [13] has as its system NB-4. Description: Cell cycle arrest in human NB4 cells assessed as accumulation of cells at G0/G1 phase at 2 uM incubated for 3 hrs by DAPI staining based flow cytometric analysis (reference value: 56 %). The test is classed as functional.
Test [14] has as its system NB-4. Description: Cell cycle arrest in human NB4 cells assessed as accumulation of cells at S phase at 2 uM incubated for 12 hrs by DAPI staining based flow cytometric analysis (reference value: 20 %). Format: functional.
The nature of test [15]: Cell cycle arrest in human ATRA-resistant NB4-LR2 cells assessed as accumulation of cells at G0/G1 phase at 2 uM incubated for 3 hrs by DAPI staining based flow cytometric analysis (reference value: 57 %). Format: functional.
Test [16] can be described thus: Cell cycle arrest in human ATRA-resistant NB4-LR2 cells assessed as accumulation of cells at G2/M phase at 2 uM incubated for 3 hrs by DAPI staining based flow cytometric analysis (reference value: 15 %). The test is classed as functional.
Test [17] in a line: Cell cycle arrest in human ATRA-resistant NB4-LR2 cells assessed as accumulation of cells at sub-G1 phase at 2 uM incubated for 3 hrs by DAPI staining based flow cytometric analysis (reference value: 9 %). The test is classed as functional.
Test [18] in a line: Cell cycle arrest in human ATRA-resistant NB4-LR2 cells assessed as accumulation of cells at G0/G1 phase at 2 uM incubated for 6 hrs by DAPI staining based flow cytometric analysis (reference value: 57 %). Format: functional.
Test [19] can be described thus: Cell cycle arrest in human ATRA-resistant NB4-LR2 cells assessed as accumulation of cells at G2/M phase at 2 uM incubated for 12 hrs by DAPI staining based flow cytometric analysis (reference value: 15 %). Format: functional.
The test system of test [20] is NB-4. Description: Cell cycle arrest in human NB4 cells transfected with pLVX-shRNA2-negative control assessed as accumulation of cells at S phase at 1 uM incubated for 12 hrs by DAPI staining based flow cytometric analysis (reference value: 26 %). The test is classed as functional.
In test [21] the test system is NB-4. Description: Cell cycle arrest in human NB4 cells transfected with pLVX-shRNA2-negative control assessed as accumulation of cells at sub-G1 phase at 1 uM incubated for 12 hrs by DAPI staining based flow cytometric analysis (reference value: 4 %). The test is classed as functional.
Test [22] relates to NB-4. Description: Cell cycle arrest in human NB4 cells transfected with pLVX-shRNA2-negative control assessed as accumulation of cells at S phase at 2 uM incubated for 12 hrs by DAPI staining based flow cytometric analysis (reference value: 26 %). The test is classed as functional.
Test [23] relates to NB-4. Description: Cell cycle arrest in human NB4 cells transfected with pLVX-shRNA2-negative control assessed as accumulation of cells at G2/M phase at 2 uM incubated for 12 hrs by DAPI staining based flow cytometric analysis (reference value: 24 %). The test is classed as functional.
In test [24] the test system is NB-4. Description: Cell cycle arrest in human NB4 cells transfected with pLVX-shRNA2-negative control assessed as accumulation of cells at sub-G1 phase at 2 uM incubated for 12 hrs by DAPI staining based flow cytometric analysis (reference value: 4 %). The test is classed as functional.
Test [25] has as its system NB-4. Description: Cell cycle arrest in human NB4 cells transfected with pLVX-shRXRalpha plasmid assessed as accumulation of cells at G0/G1 phase at 2 uM incubated for 12 hrs by DAPI staining based flow cytometric analysis (reference value: 53 %). Format: functional.
For test [26], the system named is NB-4. Description: Cell cycle arrest in human NB4 cells transfected with pLVX-shRXRalpha plasmid assessed as accumulation of cells at S phase at 2 uM incubated for 12 hrs by DAPI staining based flow cytometric analysis (reference value: 19 %). Format: functional.
For test [27], the system named is ATRA-resistant NB4-LR2. Description: Cell cycle arrest in human ATRA-resistant NB4-LR2 cells transfected with pLVX-shRXRalpha assessed as increase in PLK1 expression at 1 uM incubated for 12 hrs by Western blot analysis. Format: functional, cell-based. (In western blotting, separated proteins are transferred to a membrane and probed.)
Test [28] concerns ATRA-resistant NB4-LR2. Description: Induction of apoptosis in human ATRA-resistant NB4-LR2 cells transfected with pLVX-shRXRalpha assessed as increase in cleaved PARP expression at 1 uM incubated for 12 hrs by Western blot analysis. The test is classed as functional, cell-based.
Test [29] concerns NB-4. Description: Induction of apoptosis in human NB4 cells assessed as early apoptotic cells at 1 uM incubated for 24 hrs by Annexin V-FITC/PI staining based flow cytometric analysis (reference value: 1.77 %). The test is classed as functional.
Test [30] deals with NB-4. Description: Cell cycle arrest in human NB4 cells assessed as accumulation of cells at G0/G1 phase at 1 uM incubated for 12 hrs by DAPI staining based flow cytometric analysis (reference value: 51 %). Format: functional.
Test [31] has as its system NB-4. Description: Cell cycle arrest in human NB4 cells assessed as accumulation of cells at sub-G1 phase at 1 uM incubated for 12 hrs by DAPI staining based flow cytometric analysis (reference value: 2 %). Format: functional.

Active and inactive are the calls of the source. The calls are words filed in the database; no cut-off is given here.

Regarding `Cc1cc2c(cc1C(=O)/C(Br)=C\c1ccc(C(=O)O)cc1)C(C)(C)CCC2(C)C`, the outcome with NB-4 [1] and in the test with ATRA-resistant NB4-LR2 [2] was Active.

In the case of `Cc1cc2c(cc1C(=O)/C(Br)=C/c1ccc(C(=O)O)cc1)C(C)(C)CCC2(C)C`, the Activity with NB-4 [3] amounted to 59%; in the test with NB-4 [4] it was 10%; in the test with NB-4 [5] it was 37%; in the test with NB-4 [6], 9%; in [7] it was 18%; in test [8], 30%. The Activity in test [9] amounted to 20%; in test [10] it was 34%; in [11], 23%; in test [12], 21%; in the test on NB-4 [13], 48%; in the test on NB-4 [14], 22%. In addition, the Activity was found to be 48% in test [15]; 33% in test [16]; 13% in test [17]; 45% in [18]; 22% in [19]; 8% with NB-4 [20]. For the same compound, the Activity with NB-4 [21] is recorded as 7%; in the test with NB-4 [22], 18%; in the test with NB-4 [23], 44%; in the test on NB-4 [24], 7%; in the test with NB-4 [25] it was 40%; with NB-4 [26], 22%. Moreover, the Activity with NB-4 [29] is 19.18%; in the test with NB-4 [30] it was 20%; with NB-4 [31], 5%. Further, the result in the test on ATRA-resistant NB4-LR2 [27] and in the test on ATRA-resistant NB4-LR2 [28] was inactive.
